Measured values published in ChEMBL document CHEMBL5046228 (Eur J Med Chem, 2022).

Assays:
[1] = tested on: HCC827; test: Antiproliferative activity against human HCC827 cells expressing EGFR del119 mutant assessed as inhibition in cell viability after 72 hrs by CCK8 assay; format: functional, cell-based; conditions: HCC827, 72 h
[2] = tested on: A549; test: Antiproliferative activity against human A549 cells expressing wild type EGFR assessed as inhibition in cell viability after 72 hrs by CCK8 assay; format: functional, cell-based; conditions: A549, 72 h
[3] = tested on: NCI-H1299; test: Antiproliferative activity against human NCI-H1299 cells expressing wild type EGFR assessed as inhibition in cell viability after 72 hrs by CCK8 assay; format: functional, cell-based; conditions: NCI-H1299, 72 h
[4] = tested on: NCI-H1299; test: Induction of cell cycle arrest in human NCI-H1299 cells assessed as accumulation at G0/G1 phase at 0.1 uM after 36 hrs by PI staining based flow cytometry analysis (reference value: 70.2%); format: functional
[5] = tested on: NCI-H1299; test: Induction of cell cycle arrest in human NCI-H1299 cells assessed as accumulation at G0/G1 phase at 0.5 uM after 36 hrs by PI staining based flow cytometry analysis (reference value: 70.2%); format: functional
[6] = tested on: NCI-H1299; test: Induction of cell cycle arrest in human NCI-H1299 cells assessed as accumulation at G0/G1 phase at 2.5 uM after 36 hrs by PI staining based flow cytometry analysis (reference value: 70.2%); format: functional
[7] = tested on: NCI-H1299; test: Induction of cell cycle arrest in human NCI-H1299 cells assessed as accumulation at G2/M phase at 2.5 uM after 36 hrs by PI staining based flow cytometry analysis (reference value: 5.6%); format: functional
[8] = tested on: NCI-H1975; test: Induction of cell cycle arrest in human NCI-H1975 cells assessed as accumulation at G0/G1 phase at 0.02 uM after 36 hrs by PI staining based flow cytometry analysis (reference value: 24.2%); format: functional
[9] = tested on: NCI-H1975; test: Induction of cell cycle arrest in human NCI-H1975 cells assessed as accumulation at G2/M phase at 0.02 uM after 36 hrs by PI staining based flow cytometry analysis (reference value: 43.1%); format: functional
[10] = tested on: NCI-H1975; test: Induction of cell cycle arrest in human NCI-H1975 cells assessed as accumulation at S phase at 0.02 uM after 36 hrs by PI staining based flow cytometry analysis (reference value: 32.7 %); format: functional
[11] = tested on: NCI-H1975; test: Induction of cell cycle arrest in human NCI-H1975 cells assessed as accumulation at G0/G1 phase at 0.5 uM after 36 hrs by PI staining based flow cytometry analysis (reference value: 24.2%); format: functional
[12] = tested on: NCI-H1975; test: Induction of cell cycle arrest in human NCI-H1975 cells assessed as accumulation at S phase at 0.5 uM after 36 hrs by PI staining based flow cytometry analysis (reference value: 32.7 %); format: functional
[13] = tested on: NCI-H1975; test: Induction of cell cycle arrest in human NCI-H1975 cells assessed as accumulation at G0/G1 phase at 2.5 uM after 36 hrs by PI staining based flow cytometry analysis (reference value: 24.2%); format: functional
[14] = tested on: NCI-H1975; test: Induction of cell cycle arrest in human NCI-H1975 cells assessed as accumulation at S phase at 2.5 uM after 36 hrs by PI staining based flow cytometry analysis (reference value: 32.7 %); format: functional
[15] = tested on: NCI-H1299; test: Induction of apoptosis in human NCI-H1299 cells assessed as increase in viable cells at 0.02 uM after 36 hrs by annexin-V-FITC/PI staining based flow cytometric analysis (reference value: 94.1%); format: functional
[16] = tested on: NCI-H1299; test: Induction of apoptosis in human NCI-H1299 cells assessed as increase in early apoptotic cells at 0.02 uM after 36 hrs by annexin-V-FITC/PI staining based flow cytometric analysis (reference value: 0.79%); format: functional
[17] = tested on: NCI-H1299; test: Induction of apoptosis in human NCI-H1299 cells assessed as increase in late apoptotic cells at 0.02 uM after 36 hrs by annexin-V-FITC/PI staining based flow cytometric analysis (reference value: 4.39%); format: functional
[18] = tested on: NCI-H1299; test: Induction of apoptosis in human NCI-H1299 cells assessed as increase in necrotic cells at 0.02 uM after 36 hrs by annexin-V-FITC/PI staining based flow cytometric analysis (reference value: 0.75%); format: functional
[19] = tested on: NCI-H1299; test: Induction of apoptosis in human NCI-H1299 cells assessed as increase in viable cells at 0.1 uM after 36 hrs by annexin-V-FITC/PI staining based flow cytometric analysis (reference value: 94.1%); format: functional
[20] = tested on: NCI-H1299; test: Induction of apoptosis in human NCI-H1299 cells assessed as increase in late apoptotic cells at 0.1 uM after 36 hrs by annexin-V-FITC/PI staining based flow cytometric analysis (reference value: 4.39%); format: functional
[21] = tested on: NCI-H1299; test: Induction of apoptosis in human NCI-H1299 cells assessed as increase in necrotic cells at 0.1 uM after 36 hrs by annexin-V-FITC/PI staining based flow cytometric analysis (reference value: 0.75%); format: functional
[22] = tested on: NCI-H1299; test: Induction of apoptosis in human NCI-H1299 cells assessed as increase in viable cells at 0.5 uM after 36 hrs by annexin-V-FITC/PI staining based flow cytometric analysis (reference value: 94.1%); format: functional
[23] = tested on: NCI-H1299; test: Induction of apoptosis in human NCI-H1299 cells assessed as increase in viable cells at 2.5 uM after 36 hrs by annexin-V-FITC/PI staining based flow cytometric analysis (reference value: 94.1%); format: functional
[24] = tested on: NCI-H1299; test: Induction of apoptosis in human NCI-H1299 cells assessed as increase in early apoptotic cells at 2.5 uM after 36 hrs by annexin-V-FITC/PI staining based flow cytometric analysis (reference value: 0.79%); format: functional
[25] = tested on: NCI-H1299; test: Induction of apoptosis in human NCI-H1299 cells assessed as increase in necrotic cells at 2.5 uM after 36 hrs by annexin-V-FITC/PI staining based flow cytometric analysis (reference value: 0.75%); format: functional
[26] = tested on: NCI-H1975; test: Induction of apoptosis in human NCI-H1975 cells assessed as increase in viable cells at 0.02 uM after 36 hrs by annexin-V-FITC/PI staining based flow cytometric analysis (reference value: 94.6%); format: functional
[27] = tested on: NCI-H1975; test: Induction of apoptosis in human NCI-H1975 cells assessed as increase in early apoptotic cells at 0.02 uM after 36 hrs by annexin-V-FITC/PI staining based flow cytometric analysis (reference value: 1.24%); format: functional
[28] = tested on: NCI-H1975; test: Induction of apoptosis in human NCI-H1975 cells assessed as increase in late apoptotic cells at 0.02 uM after 36 hrs by annexin-V-FITC/PI staining based flow cytometric analysis (reference value: 3.85%); format: functional
[29] = tested on: NCI-H1975; test: Induction of apoptosis in human NCI-H1975 cells assessed as increase in necrotic cells at 0.02 uM after 36 hrs by annexin-V-FITC/PI staining based flow cytometric analysis (reference value: 0.35%); format: functional
[30] = tested on: NCI-H1975; test: Induction of apoptosis in human NCI-H1975 cells assessed as increase in late apoptotic cells at 0.5 uM after 36 hrs by annexin-V-FITC/PI staining based flow cytometric analysis (reference value: 3.85%); format: functional
[31] = tested on: NCI-H1975; test: Induction of apoptosis in human NCI-H1975 cells assessed as increase in late apoptotic cells at 2.5 uM after 36 hrs by annexin-V-FITC/PI staining based flow cytometric analysis (reference value: 3.85%); format: functional
[32] = in vitro; conditions: human

C#CCN(C)CCN(C)c1cc(OC)c(Nc2nccc(Nc3cn(C)c4ccccc34)n2)cc1NC(=O)C=C
IC50 [1]: 0.00363 µM | IC50 [2]: > 100 µM | IC50 [3]: > 100 µM | Activity [4]: 70.6% | Activity [5]: 68.4% | Activity [6]: 67.5% | Activity [7]: 7.8% | Activity [8]: 22.5% | Activity [9]: 50.2% | Activity [10]: 27.3% | Activity [11]: 18.3% | Activity [12]: 19.1% | Activity [13]: 17% | Activity [14]: 18.4% | Activity [15]: 93.1% | Activity [16]: 1.05% | Activity [17]: 5.17% | Activity [18]: 0.65% | Activity [19]: 92.6% | Activity [20]: 5.69% | Activity [21]: 0.63% | Activity [22]: 92.6% | Activity [23]: 92.1% | Activity [24]: 0.95% | Activity [25]: 0.6% | Activity [26]: 94.9% | Activity [27]: 1.98% | Activity [28]: 3.09% | Activity [29]: 0.038% | Activity [30]: 8.52% | Activity [31]: 7.25% | selectivity ratio [32]: 38800
